Source: PMC6499206, “Quantification of Volatile Metabolites Derived From Garlic (Allium sativum) in Human Urine” (Frontiers in Nutrition, 2019)

Assay: Quantification of garlic-derived metabolites in human urine after ingestion of 3 g raw garlic (SIDA, SAFE, HRGC-MS / HRGC-GC-MS)
Format: in vivo
Set-up: metabolite in urine related to creatinine: unit not given here
Conditions: for highest detected concentration of the sample series: same bulb
Source text: Human urine samples were obtained from 18 volunteers (age 22–38 years, mean 27 years; 11 females, 7 males); thereby, one volunteer conducted the whole experimental series twice. At the time of examination, volunteers reported no known illness that might have potentially influenced the metabolism or the excretion of urine. The test persons were instructed to avoid foods that were rich in sulfur-containing substances at the testing day as well as 2 days preceding the testing day, namely garlic, onion, wild garlic, chives, cabbage, and leek, and were only allowed to consume the garlic sample provided in the course of the experiments. Additionally, subjects were asked to keep records of the food (including food supplements) and beverages they consumed during these 3 testing days. Generally, the overall panelists' requirements were in accordance with our previous studies ([5], [16]).
On the sampling day, the outer garlic cloves of a whole garlic bulb were peeled and cut into ~3 mm cubes by using a garlic cutter (Genius GmbH, Limburg/Lahn, Germany). Subsequently these cubes were thoroughly mixed and aliquoted into 3 g portions. Three to four test persons conducted the experiment at the same day. Each test person was asked to ingest a garlic portion of 3 g. In total, eight consecutive urine samples were provided by each test person, comprising one whole urine set. The samples were collected in sterile brown glass bottles, with sampling times as follows: one sample was provided directly prior to garlic consumption. The series of the second to eighth sample was then obtained at about 0.5, 1, 2, 4, 6, 8, and 24 h after garlic consumption, respectively. Between the first urine sample (prior to garlic consumption) and the seventh urine sample (8 h after garlic consumption) test persons only spent urine at the specific time points mentioned before. Another sample was provided at the next morning (24 h after garlic consumption). Between the samples provided 8 and 24 h after garlic consumption no urine was collected. All samples were immediately placed into a −80°C freezer and were kept frozen until further analysis.
The samples of each set were termed according to their sampling time. The following list provides the time intervals that are related to the respective sample name: • - pre: before garlic consumption • - 0.5 h post: 0.4–0.8 h after garlic consumption • - 1 h post: 0.9–1.3 h after garlic consumption • - 2 h post: 1.8 h−2.2 h after garlic consumption • - 4 h post: 3.8–4.4 h after garlic consumption • - 6 h post: 5.8–6.4 h after garlic consumption • - 8 h post: 7.8–8.4 h after garlic consumption • - 24 h post: 23.8–25.6 h after garlic consumption
A creatinine kit (Labor+Technik Eberhard Lehmann GmbH, Berlin, Germany) was used to determine the creatinine content in each urine sample. The determination principle of this kit is based on the reaction of creatinine with picric acid under basic conditions (Jaffé reaction). The formed complex was detected photometrically at a wavelength of 492 nm.
For quantification purposes, the deuterated standards ^2H3-AMS, ^2H3-AMSO, and ^2H3-AMSO2 were added to the sample and stirred for 10 min. Subsequently, DCM was added in a ratio of 1:2 (DCM/human urine; v/v) and this solution was stirred for further 30 min at room temperature. To isolate the volatile fraction from the urine samples we then applied SAFE-distillation ([17]), thereby distilling the respective samples at 50°C. After completion of the distillation process, 10 mL of DCM were applied in each case to rinse the SAFE apparatus and to ensure complete transition of the volatile compounds. This process was repeated with another 10 mL of DCM. After thawing, the obtained aqueous distillate phase was extracted three times with 25 mL DCM. The organic phases were combined, dried over anhydrous Na2SO4 and concentrated to a total volume of 100 μL by means of Vigreux distillation and subsequent micro-distillation at 50°C. […]

[1] = U XII, 2 h post (1.85 h), 3 g raw garlic
[2] = U XII, 4 h post (3.80 h), 3 g raw garlic
[3] = U XII, 6 h post (5.82 h), 3 g raw garlic
[4] = U XII, 8 h post (7.82 h), 3 g raw garlic
[5] = U XII, 24 h post (23.92 h), 3 g raw garlic
[6] = U XII, pre (-0.08 h), 3 g raw garlic
[7] = U XIII, 0.5 h post (0.42 h), 3 g raw garlic
[8] = U XIII, 1 h post (0.92 h), 3 g raw garlic
[9] = U XIII, 2 h post (1.92 h), 3 g raw garlic
[10] = U XIII, 4 h post (3.92 h), 3 g raw garlic
[11] = U XIII, 6 h post (5.92 h), 3 g raw garlic
[12] = U XIII, 8 h post (7.92 h), 3 g raw garlic
[13] = U XIII, 24 h post (23.92 h), 3 g raw garlic
[14] = U XIII, pre (-0.08 h), 3 g raw garlic

metabolite concentration in urine [1]: 48.2 µg/kg
metabolite concentration in urine, creatinine-normalized [1]: 72.4 µg/mmol creatinine
metabolite concentration in urine [2]: 76.1 µg/kg
metabolite concentration in urine, creatinine-normalized [2]: 28.5 µg/mmol creatinine
metabolite concentration in urine [3]: 82.8 µg/kg
metabolite concentration in urine, creatinine-normalized [3]: 14.3 µg/mmol creatinine
metabolite concentration in urine [4]: 61.4 µg/kg
metabolite concentration in urine, creatinine-normalized [4]: 21.6 µg/mmol creatinine
metabolite concentration in urine [5]: 6.6 µg/kg
metabolite concentration in urine, creatinine-normalized [5]: 0.4 µg/mmol creatinine
metabolite concentration in urine [6]: 2.0 µg/kg
metabolite concentration in urine, creatinine-normalized [6]: 0.1 µg/mmol creatinine
metabolite concentration in urine [7]: 19.8 µg/kg
metabolite concentration in urine, creatinine-normalized [7]: 12.4 µg/mmol creatinine
metabolite concentration in urine [8]: 145.0 µg/kg
metabolite concentration in urine, creatinine-normalized [8]: 58.5 µg/mmol creatinine
metabolite concentration in urine [9]: 182.5 µg/kg
metabolite concentration in urine, creatinine-normalized [9]: 52.4 µg/mmol creatinine
metabolite concentration in urine [10]: 174.3 µg/kg
metabolite concentration in urine, creatinine-normalized [10]: 36.8 µg/mmol creatinine
metabolite concentration in urine [11]: 105.0 µg/kg
metabolite concentration in urine, creatinine-normalized [11]: 9.0 µg/mmol creatinine
metabolite concentration in urine [12]: 67.5 µg/kg
metabolite concentration in urine, creatinine-normalized [12]: 7.7 µg/mmol creatinine
metabolite concentration in urine [13]: 8.5 µg/kg
metabolite concentration in urine, creatinine-normalized [13]: 1.0 µg/mmol creatinine
metabolite concentration in urine [14]: < LOD^3
metabolite concentration in urine, creatinine-normalized [14]: < LOD^3
variation factor of the concentration maxima between test persons (Urine XIII-XVI, highest vs lowest maximum): 2.2
highest detected concentration of the sample series (Urine XIII, 3 g raw garlic): 58.5 μg/mmol creatinine
highest detected concentration of the sample series (Urine XIV (AMS: printed Urine UIV), 3 g raw garlic): 60.1 μg/mmol creatinine
highest detected concentration of the sample series (Urine XV, 3 g raw garlic): 83.1 μg/mmol creatinine
time of highest concentration in urine after garlic consumption (Urine XVI, 3 g raw garlic): 4 h
highest detected concentration of the sample series (Urine XVI, 3 g raw garlic): 37.19 μg/mmol creatinine
metabolite in urine related to creatinine (urine set U XIX, 0.5 h post (0.50 h), garlic 3.1133 g): 4.4
metabolite in urine related to creatinine (urine set U XIX, 1 h post (1.00 h), garlic 3.1133 g): 41.2
metabolite in urine related to creatinine (urine set U XIX, 2 h post (2.00 h), garlic 3.1133 g): 77.6
metabolite in urine related to creatinine (urine set U XIX, 4 h post (4.00 h), garlic 3.1133 g): 41.4
metabolite in urine related to creatinine (urine set U XIX, 6 h post (6.20 h), garlic 3.1133 g): 30.7
metabolite in urine related to creatinine (urine set U XIX, 8 h post (7.93 h), garlic 3.1133 g): 24.3
metabolite in urine related to creatinine (urine set U XIX, 24 h post (23.98 h), garlic 3.1133 g): 1.8
metabolite in urine related to creatinine (urine set U XIX, pre (-0.07 h), garlic 3.1133 g): < LOD^3
metabolite in urine related to creatinine (urine set U XVII, 0.5 h post (0.58 h), garlic 3.1559 g): 0.3
metabolite in urine related to creatinine (urine set U XVII, 1 h post (1.00 h), garlic 3.1559 g): 4.7
metabolite in urine related to creatinine (urine set U XVII, 2 h post (2.17 h), garlic 3.1559 g): 32.1
metabolite in urine related to creatinine (urine set U XVII, 4 h post (4.00 h), garlic 3.1559 g): 27.6
metabolite in urine related to creatinine (urine set U XVII, 6 h post (6.08 h), garlic 3.1559 g): 3.0
metabolite in urine related to creatinine (urine set U XVII, 8 h post (8.00 h), garlic 3.1559 g): 5.1
metabolite in urine related to creatinine (urine set U XVII, 24 h post (23.92 h), garlic 3.1559 g): 0.7
metabolite in urine related to creatinine (urine set U XVII, pre (-0.08 h), garlic 3.1559 g): traces^3
metabolite in urine related to creatinine (urine set U XVIII, 0.5 h post (0.63 h), garlic 3.1981 g): 14.7
metabolite in urine related to creatinine (urine set U XVIII, 1 h post (1.05 h), garlic 3.1981 g): 40.5
metabolite in urine related to creatinine (urine set U XVIII, 2 h post (2.00 h), garlic 3.1981 g): 68.1
metabolite in urine related to creatinine (urine set U XVIII, 4 h post (3.97 h), garlic 3.1981 g): 56.4
metabolite in urine related to creatinine (urine set U XVIII, 6 h post (5.97 h), garlic 3.1981 g): 26.3
metabolite in urine related to creatinine (urine set U XVIII, 8 h post (8.30 h), garlic 3.1981 g): 42.2
metabolite in urine related to creatinine (urine set U XVIII, 24 h post (24.13 h), garlic 3.1981 g): 1.3
metabolite in urine related to creatinine (urine set U XVIII, pre (-0.08 h), garlic 3.1981 g): < LOD^3
Structure (SMILES): C=CCS(C)(=O)=O [AMSO2, allyl methyl sulfone]
